Source: US5380715A, “Ap4 A as a hypotensive agent” (Fujirebio Inc., priority 1992, dated 1995)
Read-outs that look alike come from different tables or passages of the source.

Key:
[1] = system: rabbit platelet aggregation; test: Inhibitory effect on rabbit platelet aggregation; type: cell-based; settings: rabbit PRP
Method: Fresh blood samples were collected from male Japanese white rabbits weighing 2-3 kg. Blood was anticoagulated with citric acid (1 ml 3.8% citric acid solution +9 ml blood). These samples were centrifuged at room temperature for 20 min at 200×g to obtained platelet-rich plasma (PRP). Furthermore, the supernatant liquid was centrifuged for 10 min at 1500×g to obtained platelet-poor plasma (PPP). Aggregation of platelests was measured photometrically in a Nihon Kohden hema tracer equipped with a mechanical stirring device and with a chart record. At this time, the chart recorder was calibrated as follows: the light transmission obtained with PPP was set as 100% transmission and the optical density of PRP was taken as 0% transmission. Maximal aggregation, i.e. the maximal change in optical density of the primary wave calculated in percent light transmission. From the study, it was determined that ADP, Ap3A, PAF(platelet activating factor) and collagen induced maximal aggregations at a concentration of 1×10^-5 M, 1×10^-4 M, 1.9×10^-7 M and 5 μg/kg, respectively. In the following studies, these aggregating agents were used at maximal dose. The effect of Ap4A on platelet aggregation by ADP and Ap3A were tested. In this time, Ap4A was pretreated for 1 or 10 min before the addition of aggregating agents. Also, after the platelet aggregation was induced by addition of ADP, PAF or collagen to PRP, the platelet aggregate dispersing effect of Ap4A was tested.

[2] = words, cited from earlier work

Nc1ncnc2c1ncn2[C@@H]1O[C@H](COP(=O)(O)OP(=O)(O)O)[C@@H](O)[C@H]1O [ADP, adenosine diphosphate, reference compound]
concentration inducing maximal platelet aggregation [1]: 10 µM

Nc1ncnc2c1ncn2[C@@H]1O[C@H](COP(=O)(O)OP(=O)(O)OP(=O)(O)OC[C@H]2O[C@@H](n3cnc4c(N)ncnc43)[C@H](O)[C@@H]2O)[C@@H](O)[C@H]1O [Ap3A, diadenosine 5', 5'"-p^1,p^4 -triphosphate, reference compound]
concentration inducing maximal platelet aggregation [1]: 100 µM

FC(F)(F)C(Cl)Br (stereo not shown) [Halothane]
shortcomings / adverse effects [2]: hepatotoxicity and sthenia of brain pressure

CCCCCCCCCCCCCCCCOCC(COP(=O)([O-])OCC[N+](C)(C)C)OC(C)=O (stereo not shown) [PAF, reference compound]
concentration inducing maximal platelet aggregation [1]: 0.19 µM

O=C1N(Cc2ccccc2)C2C[S+]3CCCC3C2N1Cc1ccccc1 (stereo not shown) [trimethaphan, Trimethaphan]
shortcomings / adverse effects [2]: renal insufficiency because of tubular impairment near the kidney, tachyphylaxis, tachycardia, and mydriasis after its use
shortcomings / adverse effects ([2]; listed as Trimethaphan): cardiac contractility, cardiac output, and coronary blood flow are decreased by the ganglionic blockade thereof and histamine liberation effect is increased

collagen [reference compound]
concentration inducing maximal platelet aggregation [1]: 5 µg/kg
